Measurements from patent EP4206196A1, “PYRIMIDINE SUBSTITUTED DERIVATIVES AS TYK2 INHIBITORS” (Almirall S.A., priority 2021, dated 2023).

How the values were obtained:
[1] = molecular target: T1, TYK2 (JH2domain-pseudokinase) (Homo sapiens, UniProt P29597); assay: TYK2 JH2 domain binding assay (KINOMEscan)
T1 construct: TYK2 (JH2domain-pseudokinase)-tagged T7 phage strains were prepared in an E. coli host derived from the BL21 strain; made in house; host or cells: E. coli BL21-derived host (T7 phage) or HEK-293 cells
T1 sequence (P29597 589-875 limits assumed): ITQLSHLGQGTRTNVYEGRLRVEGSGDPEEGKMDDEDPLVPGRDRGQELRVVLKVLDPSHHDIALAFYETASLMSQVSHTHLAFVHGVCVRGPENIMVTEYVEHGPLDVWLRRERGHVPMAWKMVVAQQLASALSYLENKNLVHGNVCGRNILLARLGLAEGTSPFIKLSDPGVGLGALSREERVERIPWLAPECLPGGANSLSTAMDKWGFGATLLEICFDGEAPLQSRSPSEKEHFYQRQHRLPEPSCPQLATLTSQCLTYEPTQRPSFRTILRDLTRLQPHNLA
Protocol: TYK2 (JH2domain-pseudokinase) KINOMEscan assay. For the assay, TYK2 (JH2domain-pseudokinase)-tagged T7 phage strains were prepared in an E. coli host derived from the BL21 strain.E. coli were grown to log-phase and infected with T7 phage and incubated with shaking at 32°C until lysis. The lysates were centrifuged and filtered to remove cell debris. The remaining TYK2 (JH2domain-pseudokinase) were produced in HEK-293 cells and subsequently tagged with DNA for qPCR detection. Streptavidin-coated magnetic beads were treated with biotinylated small molecule ligands for 30 minutes at room temperature to generate affinity resins for kinase assays. The liganded beads were blocked with excess biotin and washed with blocking buffer (SeaBlock (Pierce), 1% BSA, 0.05% Tween 20, 1 mM DTT) to remove unbound ligand and to reduce non-specific binding. Binding reactions were assembled by combining TYK2 (JH2domain-pseudokinase), liganded affinity beads, and test compounds in 1x binding buffer (20% SeaBlock, 0.17x PBS, 0.05% Tween 20, 6 mM DTT). Test compounds were prepared as 111X stocks in 100% DMSO. Kds were determined using an 11-point 3-fold compound dilution series with three DMSO control points. All compounds for Kd measurements are distributed by acoustic transfer (non-contact dispensing) in 100% DMSO. The compounds were then diluted directly into the assays such that the final concentration of DMSO was 0.9%. All reactions performed in polypropylene 384-well plate. Each was a final volume of 0.02 ml. The assay plates were incubated at room temperature with shaking for 1 hour and the affinity beads were washed with wash buffer (1x PBS, 0.05% Tween 20). The beads were then re-suspended in elution buffer (1x PBS, 0.05% Tween 20, 0.5 µM non-biotinylated affinity ligand) and incubated at room temperature with shaking for 30 minutes. The kinase concentration in the eluates was measured by qPCR. […]
An 11-point 3-fold serial dilution of each test compound was prepared in 100% DMSO at 100x final test concentration and subsequently diluted to 1x in the assay (final DMSO concentration = 1%). Most Kds were determined using a compound top concentration = 30,000 nM. If the initial Kd determined was < 0.5 nM (the lowest concentration tested), the measurement was repeated with a serial dilution starting at a lower top concentration.
Curves were fitted using a non-linear least square fit with the Levenberg-Marquardt algorithm. […] TABLE 1: Kd Affinities for Tyk2 JH2 Domain Binding Assay.

[2] = tested on: STAT1/3 through TYK2/JAK1; assay: IFNa induced STAT phosphorylation in HEK293 cells (SIE-bla reporter gene); format: cell-based; conditions: Homo sapiens, HEK293; HEK293T-sie-bla cells, IFNa at EC80, 4 hours; read-out: Inhibition of IFNa induced STAT phosphorylation HEK293 cells IC50
Protocol: Stimulation of HEK293T-sie-bla cells with interferon alpha (INFa) activates the signaling pathway of STAT1/3 through TYK2/JAK1. In this assay, measurement of the activity of the reporter gene […]-lactamase expression was used as the readout.
CellSensorTM SIE-bla HEK293T cell line were purchased from Thermo Fisher Scientific (ref. #K1649B) and cultured as specified by the provider. A number of 30.000 cells per well (40 µl) were plated in a 384-well plate (Corning ref.# 3712) and cultured overnight at 37°C with 5% CO2 in a complete Optimem media (ThermoFisher ref. #11058-021) containing 0.5% (v/v) heat inactivated dialyzed FBS (Life Technologies ref. #26400044), 10 µM non-essential aminoacids NEAA (Sigma ref. #M7145), 100 µM Sodium Pyruvate (Gibco ref. #11360-039) and 100 U/mL Penicillin (Sigma ref. #P0781). Compounds were initially dissolved in 100% DMSO. Compound curves were then prepared using a 1/5 serial dilution (10 dilutions). The dilutions were directly diluted in complete Optimem media at 40-fold their final concentration in 20% DMSO. IFNa initial solution (R&D systems ref. #11100-1) was prepared at 10-fold its EC80 in complete Optimem media. Compounds and IFNa were added simultaneously to the wells with cells and incubated during 4 hours at 37°C (the final DMSO was 0.1%). The […]-lactamase substrate (LifeTechnologies ref.#K1138) was prepared at 6-fold its final concentration as specified by the provider. Then 10 µL of the mixture was added to the wells to stop the stimulation. Plate was left in the dark over-night. Then a FRET reading was performed on an appropriate plate reader.
All experiments were analysed using an ExcelFit template and the four-parameter log equation. […] TABLE 2: IC50 Inhibitions of IFNa induced STAT phosphorylation in HEK293 cells

Structure (SMILES): COCCn1cnc(-c2cccc(Nc3cc(Nc4cc(C)nc(C)n4)ncn3)c2OC)n1 [Example 44, N6-(2,6-dimethylpyrimidin-4-yl)-N4-[2-methoxy-3-[1-(2-methoxyethyl)-1,2,4-triazol-3-yl]phenyl]pyrimidine-4,6-diamine]
- Kd [1]: 0.2 to 1 nM
- IC50 [2]: 10 to 100 nM

Structure (SMILES): CCn1cnc(-c2cccc(Nc3cc(Nc4cc(C)nc(C)n4)ncn3)c2OC)n1 [Example 46, N4-(2,6-dimethylpyrimidin-4-yl)-N6-[3-(1-ethyl-1,2,4-triazol-3-yl)-2-methoxy-phenyl]pyrimidine-4,6-diamine]
- Kd [1]: < 0.2 nM
- IC50 [2]: 10 to 100 nM

Structure (SMILES): COc1c(Nc2cc(Nc3cc(C)nc(C)n3)ncn2)cccc1-c1ncn(CC2CCCCO2)n1 (centres unmarked) [Example 47, N4-(2,6-dimethylpyrimidin-4-yl)-N6-[2-methoxy-3-[1-(tetrahydropyran-2-ylmethyl)-1,2,4-triazol-3-yl]phenyl]pyrimidine-4,6-diamine]
- Kd [1]: 0.2 to 1 nM
- IC50 [2]: 10 to 100 nM

Structure (SMILES): COc1c(Nc2cc(Nc3cc(C)nc(C)n3)ncn2)cccc1-c1nc(C)nn1C1COC1 [Example 48, N4-(2,6-dimethylpyrimidin-4-yl)-N6-[2-methoxy-3-[5-methyl-2-(oxetan-3-yl)-1,2,4-triazol-3-yl]phenyl]pyrimidine-4,6-diamine]
- Kd [1]: > 10 nM
- IC50 [2]: > 1000 nM

Structure (SMILES): COc1c(Nc2cc(Nc3cc(C)nc(C)n3)ncn2)cccc1-c1nc(C)n(C2COC2)n1 [Example 49, N4-(2,6-dimethylpyrimidin-4-yl)-N6-[2-methoxy-3-[5-methyl-1-(oxetan-3-yl)-1,2,4-triazol-3-yl]phenyl]pyrimidine-4,6-diamine]
- Kd [1]: 0.2 to 1 nM
- IC50 [2]: > 1000 nM

Structure (SMILES): COc1c(Br)cccc1Nc1cc(Nc2cc(C)nc(C)n2)ncn1 [Example 50, N6-(3-bromo-2-methoxy-phenyl)-N4-(2,6-dimethylpyrimidin-4-yl)pyrimidine-4,6-diamine]
- Kd [1]: 1 to 10 nM
- IC50 [2]: 100 to 1000 nM

Structure (SMILES): COc1c(Nc2cc(Nc3cc(C)nc(C)n3)ncn2)cccc1-c1ncn(CC2COC2)n1 [Example 51, N6-(2,6-dimethylpyrimidin-4-yl)-N4-[2-methoxy-3-[1-(oxetan-3-ylmethyl)-1,2,4-triazol-3-yl]phenyl]pyrimidine-4,6-diamine]
- Kd [1]: < 0.2 nM
- IC50 [2]: 10 to 100 nM

Structure (SMILES): COc1c(Nc2cc(Nc3cc(C)nc(C)n3)ncn2)cccc1-c1ncn(CC2CCOCC2)n1 [Example 52, N4-(2,6-dimethylpyrimidin-4-yl)-N6-[2-methoxy-3-[1-(tetrahydropyran-4-ylmethyl)-1,2,4-triazol-3-yl]phenyl]pyrimidine-4,6-diamine]
- Kd [1]: 0.2 to 1 nM
- IC50 [2]: 100 to 1000 nM

Structure (SMILES): COc1c(Nc2cc(Nc3cc(C)nc(C)n3)ncn2)cccc1-c1ncn(CC2CC(F)(F)C2)n1 [Example 53, N6-[3-[1-[(3,3-difluorocyclobutyl)methyl]-1,2,4-triazol-3-yl]-2-methoxyphenyl]-N4-(2,6-dimethylpyrimidin-4-yl)pyrimidine-4,6-diamine]
- Kd [1]: 0.2 to 1 nM
- IC50 [2]: 100 to 1000 nM

Structure (SMILES): COc1c(Nc2cc(Nc3cc(C)nc(C)n3)ncn2)cccc1-c1ncn(C2CC2(F)F)n1 (centres unmarked) [Example 55, N6-[3-[1-(2,2-difluorocyclopropyl)-1,2,4-triazol-3-yl]-2-methoxy-phenyl]-N4-(2,6-dimethylpyrimidin-4-yl)pyrimidine-4,6-diamine]
- Kd [1]: 0.2 to 1 nM
- IC50 [2]: 10 to 100 nM

Structure (SMILES): Cc1cc(Nc2cc(Nc3nccc(C)c3N(C)S(C)(=O)=O)ncn2)nc(C)n1 [Example 61, N-(2-((6-((2,6-dimethylpyrimidin-4-yl)amino)pyrimidin-4-yl)amino)-4-methylpyridin-3-yl)-N-methylmethanesulfonamide]
- Kd [1]: 1 to 10 nM
- IC50 [2]: 100 to 1000 nM

Structure (SMILES): COc1c(Nc2cc(Nc3cc(C)nc(C)n3)ncn2)cccc1-c1noc(CN2CCOCC2)n1 [Example 62, N6-(2,6-dimethylpyrimidin-4-yl)-N4-[2-methoxy-3-[5-(morpholinomethyl)-1,2,4-oxadiazol-3-yl]phenyl]pyrimidine-4,6-diamine]
- Kd [1]: < 0.2 nM
- IC50 [2]: 10 to 100 nM

Structure (SMILES): COc1c(Nc2cc(Nc3cc(C)nc(C)n3)ncn2)ccc(C)c1-c1ncn(C)n1 [Example 63, 6-N-(2,6-dimethylpyrimidin-4-yl)-4-N-[2-methoxy-4-methyl-3-(1-methyl-1,2,4-triazol-3-yl)phenyl]pyrimidine-4,6-diamine]
- Kd [1]: 0.2 to 1 nM
- IC50 [2]: 10 to 100 nM

Structure (SMILES): COc1c(Nc2cc(Nc3cc(C)nc(C)n3)ncn2)ccc(F)c1-c1ncn(C)n1 [Example 64, N4-(2,6-dimethylpyrimidin-4-yl)-N6-[4-fluoro-2-methoxy-3-(1-methyl-1,2,4-triazol-3-yl)phenyl]pyrimidine-4,6-diamine]
- Kd [1]: 0.2 to 1 nM
- IC50 [2]: 100 to 1000 nM

Structure (SMILES): COc1c(Nc2cc(Nc3ccc(F)cn3)ncn2)cccc1-c1ncn(C)n1 [Example 65, N4-(5-fluoro-2-pyridyl)-N6-[2-methoxy-3-(1-methyl-1,2,4-triazol-3-yl)phenyl]pyrimidine-4,6-diamine]
- Kd [1]: 0.2 to 1 nM
- IC50 [2]: 10 to 100 nM

Structure (SMILES): Cc1cc(Nc2cc(Nc3ccccc3CS(C)(=O)=O)ncn2)nc(C)n1 [Example 66, N4-(2,6-dimethylpyrimidin-4-yl)-N6-[2-(methylsulfonylmethyl)phenyl]pyrimidine-4,6-diamine]
- Kd [1]: 0.2 to 1 nM
- IC50 [2]: 100 to 1000 nM

Structure (SMILES): Cc1cc(Nc2cc(Nc3ccc(Br)cc3N(C)S(C)(=O)=O)ncn2)nc(C)n1 [Example 67, N-[5-bromo-2-[[6-[(2,6-dimethylpyrimidin-4-yl)amino]pyrimidin-4-yl]amino]phenyl]-N-methyl-methanesulfonamide]
- Kd [1]: < 0.2 nM
- IC50 [2]: 10 to 100 nM

Structure (SMILES): Cc1ccc(Nc2cc(Nc3cc(C)nc(C)n3)ncn2)c(N(C)S(C)(=O)=O)c1 [Example 69, N-[2-[[6-[(2,6-dimethylpyrimidin-4-yl)amino]pyrimidin-4-yl]amino]-5-methyl-phenyl]-N-methyl-methanesulfonamide]
- Kd [1]: < 0.2 nM
- IC50 [2]: 10 to 100 nM

Structure (SMILES): Cc1cc(Nc2cc(Nc3ccccc3N(C)S(=O)(=O)C(F)(F)F)ncn2)nc(C)n1 [Example 71, N-[2-[[6-[(2,6-dimethylpyrimidin-4-yl)amino]pyrimidin-4-yl]amino]phenyl]-1,1,1-trifluoro-N-methyl-methanesulfonamide]
- Kd [1]: < 0.2 nM
- IC50 [2]: 10 to 100 nM

Structure (SMILES): Cc1cc(Nc2cc(Nc3ccccc3C(C)S(C)(=O)=O)ncn2)nc(C)n1 (centres unmarked) [Example 72, N4-(2,6-dimethylpyrimidin-4-yl)-N6-[2-(1-methylsulfonylethyl)phenyl]pyrimidine-4,6-diamine]
- Kd [1]: 1 to 10 nM
- IC50 [2]: 100 to 1000 nM

Structure (SMILES): Cc1cc(Nc2cc(Nc3ccccc3S(=O)(=O)N3CCCCC3)ncn2)nc(C)n1 [Example 73, N6-(2,6-dimethylpyrimidin-4-yl)-N4-[2-(1-piperidylsulfonyl)phenyl]pyrimidine-4,6-diamine]
- Kd [1]: > 10 nM
- IC50 [2]: > 1000 nM

Structure (SMILES): Cc1cc(Nc2cc(Nc3cc(F)ccc3N(C)S(C)(=O)=O)ncn2)nc(C)n1 [Example 75, N-[2-[[6-[(2,6-dimethylpyrimidin-4-yl)amino]pyrimidin-4-yl]amino]-4-fluorophenyl]-N-methylmethanesulfonamide]
- Kd [1]: < 0.2 nM
- IC50 [2]: 10 to 100 nM
